Patent US20250304571A1, “BIOLOGICALLY ACTIVE COMPOUNDS AND METHODS THEREOF” (Suzhou Keen Therapeutics Co., Ltd., priority 2022, published 2025)
pIC50: −log10 of the molar value. Read-outs that look alike come from different tables or passages of the source.

Key:
786-O cells = assay: Anti-proliferation activity in 786-O cells in the presence of a ferroptosis inhibitor (Ferrostatin-1 or Liproxstatin-1); type: cell-based; details: Homo sapiens
Protocol: In one assessment, cells (KP4, 786-0 and HT-1080) were seeded (700 cells/well, 1000 cells/well or 3000 cells/well) in 384-well or 96-well plates and incubated at 37° C./5% CO2 for 22-24 hours. A series of 8 different concentrations of compound stocks were created by 5-fold serial dilution in DMSO. These compounds were further diluted in culture media and were then added to cells (final concentrations: 100 μM, 20 μM, 4 μM, 0.8 μM, 0.16 μM, […].). After 72 hours of incubation, 30 μL of CellTiter Glo reagent (Promega) was added to each well and luminescence was measured after 10 minutes using SpectraMax M5/M5e (Molecular Devices). Luminescence from cells treated with DMSO alone was set as background and % of inhibition was calculated as follows: […]
Anti-proliferation activity of various compounds was also tested in the presence of an ferroptosis inhibitor, Ferrostatin-1 (2 μM) or Liproxstatin-1 (2 μM). Certain results are provided in Table 4 and Table 5 as examples. “A” indicates an IC50≤100 nM; “B” indicates an IC50 of >100 nM and ≤500 nM; “C” indicates an IC50>500 nM and ≤5 μM; and “D” indicates an IC50>5 μM.

[1] = Whole blood stability, mouse; type: in vitro ADME; details: 37° C.; for % Remaining: 1 μM; for half-life at 1 μM: male, Balb/c, fresh whole blood
Protocol: For example, in some embodiments, provided compounds have suitable stability profiles for various applications including therapeutic uses. Various technologies are available in the art for assessing properties, e.g., stability, of compounds and compositions, and can be utilized in accordance with the present disclosure. Certain useful technologies are described herein as examples. In some embodiments, stability was assessed in fresh blood samples, e.g., of human or mouse.
In some embodiments, fresh blood samples were collected from male Balb/c mouse with EDTA-K2 as anti-coagulant. Blood was collected before experiment and stored at 2˜8° C., and equilibrated to room temperature before use. Compounds were dissolved in DMSO at 10 mM concentration. Glibenclamide, used as an internal standard (1S), was prepared in DMSO at 1 mg/mL concentration. An aliquot of 594 μL of blank blood was spiked with 6 μL of working solution (100 μM) to achieve 1 μM of final concentration for test compounds. Solution samples were incubated for 0, 10, 30, 60, 90 and 120 minutes at 37° C., e.g., in a water bath.
An Agilent ZORBAX XDB-C18 (3.5 μm, 50×2.1 mm) was used for HPLC analysis. Mobile phases were 0.1% formic acid in water (mobile phase A), and 0.1% formic acid in acetonitrile (mobile phase B). The injection volume was 10 μL. Mass spectrometer was calibrated and tuned for each test compound. The % remaining of test compound in blood was calculated using the following equation: […]

[2] = tested on: HT-1080 (fibrosarcoma) cells; assay: Cell viability (CellTiter Glo) assay, inhibition of HT-1080 cell proliferation; type: cell-based; details: Homo sapiens, HT-1080 cells, 72 hours
[3] = Whole blood stability, human; type: in vitro ADME; details: 37° C.; for % Remaining: 1 μM; for half-life at 1 μM: fresh whole blood
[4] = tested on: 786-O (renal cell carcinoma) cells; assay: Cell viability (CellTiter Glo) assay, inhibition of 786-O cell proliferation; type: cell-based; details: Homo sapiens, 786-0; 786-O cells, 72 hours, CellTiter Glo; read-out: IC50, inhibition of 786-O cell proliferation
[5] = tested on: KP4 (pancreatic ductal adenocarcinoma) cells; assay: Cell viability (CellTiter Glo) assay, inhibition of KP4 cell proliferation; type: cell-based; details: Homo sapiens, KP-4; KP4 cells, 72 hours, CellTiter Glo; read-out: IC50, inhibition of KP4 cell proliferation
[6] = 786-0, Ferrostatin-1 (2 μM), read-out: IC50, With Ferrostatin-1
[7] = 786-0, no ferroptosis inhibitor, read-out: IC50, No Ferroptosis Inhibitor (Table 4)
[8] = 786-0, 72 h, no ferroptosis inhibitor, read-out: IC50, No Ferroptosis Inhibitor (Table 5)

Structure (SMILES) | pIC50 [2] | pIC50 [4] | pIC50 [5] | pIC50 (786-O cells; [8]) | further results
N=C(OCc1nc(N)nc(Nc2ccc(Oc3ccccc3)cc2)n1)N1CCC(F)(F)CC1 [Compound F13] | > 7.00 | > 7.00 | > 7.00 | – | pIC50 (786-O cells; [6]): < 5.30; pIC50 (786-O cells; [7]): > 7.00; % Remaining ([1]; @ 240 min): 74% @ 240 min; half-life at 1 μM [1]: 7.95 h; % Remaining ([3]; @ 240 min): 57.6% @ 240 min; half-life at 1 μM [3]: 5.35 h
CC1(C)CN(c2ccc(Oc3ccccc3)cc2)c2nc(COC(=N)N3CCC(F)(F)CC3)nc(N)c21 [Compound E2] | > 7.00 | > 7.00 | – | > 7.00 | % Remaining ([1]; @ 240 min): 63.9% @ 240 min; half-life at 1 μM [1]: 6.47 h; % Remaining ([3]; @ 240 min): 69.7% @ 240 min; half-life at 1 μM [3]: 7.85 h
CN(C)C(=N)OCc1nc(Nc2ccc(Oc3ccccc3)cc2)c2cc[nH]c2n1 [Compound D3] | 5.30 to 6.30 | 5.30 to 6.30 | 5.30 to 6.30 | – | –
N=C(OCc1nc(N)c2c(n1)N(c1cnc(C3CCOCC3)nc1)C(=O)C21CCCC1)N1CCC[C@@H]1C(F)(F)F [Compound E100, (4′-amino-6′-oxo-7′-(2-(tetrahydro-2H-pyran-4-yl)pyrimidin-5-yl)-6′,7′-dihydrospiro[cyclopentane-1,5′-pyrrolo[2,3-d]pyrimidin]-2′-yl)methyl (R)-2-(trifluoromethyl)pyrrolidine-1-carbimidate] | – | 6.30 to 7.00 | – | 6.30 to 7.00 | –
N=C(NC12CC3CC(CC(C3)C1)C2)OCc1nc(N)nc(Nc2ccc(Oc3ccccc3)cc2)n1 [Compound F20] | 6.30 to 7.00 | 6.30 to 7.00 | – | 6.30 to 7.00 | –
N=C(OCc1nc(Nc2ccc(Oc3ccccc3)cc2)c2cc[nH]c2n1)N1CCC(F)(F)CC1 [Compound D6] | – | 6.30 to 7.00 | 6.30 to 7.00 | – | pIC50 (786-O cells; [6]): < 5.30; pIC50 (786-O cells; [7]): 6.30 to 7.00
N=C(NC1CCCCC1)OCc1nc(N)nc(Nc2ccc(Oc3ccccc3)cc2)n1 [Compound F9] | 6.30 to 7.00 | > 7.00 | 6.30 to 7.00 | – | –
C#CCOc1cccc(Oc2ccc(Nc3nc(N)nc(COC(=N)N4CCC(F)(F)CC4)n3)cc2)c1 [Compound F21] | – | > 7.00 | – | > 7.00 | –
N=C(OCc1nc(N)c2c(n1)N(c1cnc(N3C4CCC3COC4)nc1)C(=O)C21CCCC1)N1CCC[C@@H]1C(F)(F)F [Compound E93] | – | > 7.00 | – | > 7.00 | –
N=C(OCc1nc(N)nc(Nc2ccc(Oc3ccccc3)cc2)n1)N1CCOCC1 [Compound F6] | > 7.00 | 6.30 to 7.00 | > 7.00 | – | % Remaining ([1]; @ 120 min): 78% @ 120 min; half-life at 1 μM [1]: 5.65 h; % Remaining ([3]; @ 120 min): 84% @ 120 min; half-life at 1 μM [3]: 6.07 h
CCN1CCN(C(=N)OCc2nc(N)c3c(n2)N(c2ccc(Oc4ccccc4)cc2)CC3(C)C)C2(CC2)C1=O [Compound E5] | 6.30 to 7.00 | 6.30 to 7.00 | – | – | –
N=C(OCc1nc(N)nc(Nc2ccc(Oc3ccccc3)cc2)n1)N1CCCCC1=O [Compound F18] | 5.30 to 6.30 | – | – | – | –
CC1(C)CN(c2ccc(Oc3ccccc3)cc2)c2nc(COC(=N)N3CCCCC3C(F)(F)F)nc(N)c21 (stereo not shown) [Compound E4] | > 7.00 | > 7.00 | – | – | –
CCN1CCN(C(=N)OCc2nc(N)nc(Nc3ccc(Oc4ccccc4)cc3)n2)C2(CC2)C1=O [Compound F19] | 5.30 to 6.30 | 6.30 to 7.00 | – | 6.30 to 7.00 | –
CNc1nc(COC(=N)N2CCC[C@@H]2C(F)(F)F)nc2c1C1(CCCC1)C(=O)N2c1cnc(C2CCOCC2)nc1 [Compound E99] | – | 5.30 to 6.30 | – | 5.30 to 6.30 | –
C[C@@H]1CN(C(=N)OCc2nc(Nc3ccc(Oc4ccccc4)cc3)c3cc[nH]c3n2)C[C@H](C)N1C(=O)OC(C)(C)C [Compound D2] | 6.30 to 7.00 | – | > 7.00 | – | –
CN(C(=N)OCc1nc(N)nc(Nc2ccc(Oc3ccccc3)cc2)n1)C1CCCCC1 [Compound F22] | 6.30 to 7.00 | > 7.00 | – | > 7.00 | –
CNc1nc(COC(=N)N2CCOCC2C(F)(F)F)nc2c1C1(CCCC1)C(=O)N2c1cnc(N2C[C@@H](C)O[C@@H](C)C2)nc1 (stereo partly shown) [Compound E97] | – | 6.30 to 7.00 | – | 6.30 to 7.00 | –
N=C(OCc1nc(N)nc(Nc2ccc(Oc3ccccc3)cc2)n1)N1CCCCC1C(F)(F)F (stereo not shown) [Compound F12] | – | > 7.00 | – | > 7.00 | –
CN(C)C(=N)OCc1nc(N)nc(Nc2ccc(Oc3ccccc3)cc2)n1 [Compound F31] | 6.30 to 7.00 | 6.30 to 7.00 | 6.30 to 7.00 | – | –
